Values quoted from earlier work, collected in patent US5994297A, “Therapy for Staphylococcus aureus” (Eli Lilly and Company, priority 1998, dated 1999).

Test system: Staphylococcus aureus strain "Mu50"
Details: Staphylococcus aureus strain Mu50 (MRSA, reduced glycopeptide sensitivity); Hiramatsu et al., J. of Antimicrobial Chemotherapy, 1997, 40, 135-146

SMILES: CN[C@H](CC(C)C)C(=O)N[C@H]1C(=O)N[C@@H](CC(N)=O)C(=O)N[C@H]2C(=O)N[C@H]3C(=O)N[C@H](C(=O)N[C@H](C(=O)O)c4cc(O)cc(O)c4-c4cc3ccc4O)[C@H](O)c3ccc(c(Cl)c3)Oc3cc2cc(c3O[C@@H]2O[C@H](CO)[C@@H](O)[C@H](O)[C@H]2O[C@H]2C[C@](C)(N)[C@H](O)[C@H](C)O2)Oc2ccc(cc2Cl)[C@H]1O [vancomycin]
- vancomycin MIC: 8 µg/mL
